Source: patent publication US8008452B2, “Phosphorylated Ndr kinase” (Novartis Forschungesstiftung, Zweigniederlassung Friedrich …, priority 2002, dated 2011)
Entries after “also recorded” stand apart in the source; their conditions may differ.

Assays:
[1] = test system: HA-NDR1; experiment: HA-NDR1 kinase assay on 12CA5 immunoprecipitates from transfected, treated COS-1 cells; assay type: cell-based, human
Experimental: In some experiments, the cells were treated for 60 min with 1 microM okadaic acid in 0.1% N,N-dimethylformamide (DMF) (Alexis Corp.), 50 microM BAPTA-AM (1,2-bis (o-aminophenoxy) ethane-N,N,N′,N′-tetraacetic acid tetra (acetoxy-methyl)ester) in 0.1% diimethylsulfoxide (DMSO; Sigma), or 20 microM thapsigargin in 0.1% DMSO (Alomone) 24 hours after transfection.
Transfected and treated COS-1 cells were washed once with ice-cold PBS, and harvested by rubber policeman in 1 ml ice-cold PBS containing 1 mM Na3VO4 and 20 mM beta-glycerophosphate before lysis in 500 microliters of IP buffer (20 mM Tris-HCl pH 8.0, 150 mM NaCl, 1% Nonidet P-40, 10% glycerol, 1 mM Na3VO4, 20 mM beta-glycerolphosphate, 1 microM microcystin-LR, 50 mM NaF, 0.5 mM PMSF, 4 microM leupeptin, 1 mM benzamidine, and 1 tablet/10 ml IP of Complete protease inhibitors (Roche)). Lysates were centrifuged at 20 000 g for 20 min and triplicate aliquots (200 microg) of supernatant were precleared with protein A-Sepharose (Amersham Pharmacia Biotech) for 60 min and mixed subsequently for 3 h at 4° C. with 12CA5 antibody prebound to protein A-Sepharose (˜1 microg antibody bound to 2 microl beads). The beads were then washed twice with IP buffer, once for 10 min with IP buffer containing 1 M NaCl, once again for 10 min with IP buffer, and finally twice with 20 mM Tris-HCl pH 7.5 containing 4 microM leupeptin and 1 mM benzamidine. Thereafter, beads were resuspended in 30 microliters buffer containing 20 mM Tris-HCl pH 7.5, 10 mM MgCl2, 1 mM DTT, 100 microM [gamma-^32P]ATP (˜0.1 microCi/microliter), 1 microM cAMP-dependent protein kinase inhibitor peptide PKI (Bachem), 4 microM leupeptin, 1 mM benzamidine, 1 microM microcystin-LR, and 1 mM NDR1 substrate peptide ([…]). After 60 min incubation at 30° C., 15 microliters of supernatant were removed, and phosphate incorporation into the substrate peptide determined as described for GST-NDR1 above.
COS-1 cells expressing either wild type HA-NDR1 or the indicated mutants were treated for 1 h with 1 microM okadaic acid or with solvent alone. HA-tagged NDR kinase variants were then immunoprecipitated (out of 100 microgram of detergent extracts) with 12CA5 monoclonal antibody and assayed for kinase activity by a peptide kinase assay as described above.
Mock-transfected or HA-NDR1-expressing COS-1 cells were treated for 1 h with […], 50 microM BAPTA-AM, and […] or with solvent (0.1% DMF or 0.1% DMSO) alone. 12CA5 immunoprecipitates (out of 100 microgram protein extract) were then assayed using the peptide kinase assay for NDR1 kinase activity.
To test whether hMOB1 plays a role in NDR activation, myc-hMOB1 or the empty vector was cotransfected with HA-NDR1 in COS1 cells and treated with OA. 12CA5 immunoprecipitates were then assayed using the peptide kinase assay for HA-NDR kinase activity. […] GST-MOB and GST respectively was added to immunoprecipitated HA-NDR and kinase reaction were performed. The reactions were resolved on a 10% SDS PAGE and the radioactivity visualised by using a phosphoimager.

[2] = test system: HA-NDR1; experiment: Immunodetection of HA-NDR1 phosphorylated on Ser281 or Thr444 from COS-1 cells; assay type: cell-based, human; settings: for phosphorylation of HA-NDR1 on Ser281: immunoblot with anti-P-S281; for phosphorylation of HA-NDR1 on Thr444: immunoblot with anti-P-T444
Experimental: Either 1 microgram GST-NDR1 or HA-NDR1 immunoprecipitated from 100 microgram COS-1 detergent extracts as described above was separated on 10% SDS-PAGE and immunoblotted 2 h at RT or overnight at 4° C. with anti-Ser281P antisera (1:1000) in the presence of 50 microg/ml competing unphosphopeptide or anti-Thr444P purified antibody (1:500). Both antibodies were detected with horseradish peroxidase-conjugated donkey anti-rabbit Ig antibody (Amersham biosciences) and developed by ECL (chemiluminescence; Amersham Pharmacia Biotech).
To examine this possibility, extracts from transfected COS-1 cells were analyzed with the anti-Ser281P and anti-Thr444P antisera. Protein extracts (10 microg) from transfected COS-1 cells were immunoblotted with 12CA5 to verify similar expression levels of each HA-NDR1 construct. For the analysis of phosphorylation status, 12CA5-immunoprecipitated HA-NDR1 variants (out of 100 microg protein extract) were analysed by immunoblotting with phosphospecific antibodies directed against P-S281 or P-T444.
Protein extracts (10 microg) from mock- and HA-NDR1-transfected COS-1 cells were also immunoblotted with 12CA5 to verify equal expression levels of HA-NDR1 construct. For the analysis of phosphorylation status, 12CA5-immunoprecipitated HA-NDR1 (out of 100 microgram protein extract) was analysed by immunoblotting with phosphospecific antibodies directed against P-S281 or P-T444.

[3] = test system: myc-hMOB1; experiment: Co-immunoprecipitation of HA-NDR and myc-hMOB1 from COS-1 cells; assay type: binding, human; settings: COS1 cells cotransfected with HA-NDR and myc-hMOB1
Experimental: HA-tagged hNDR and myc-tagged hMOB1 were cotransfected in COS1 cells, which were stimulated with okadaic acid or solvent alone. After cell lysis and extract preparation, HA-NDR was immunoprecipitated and co-immunoprecipitated myc-hMOB1 detected or Myc-hMOB1 was immunoprecipitated and co-immunoprecipitated HA-NDR detected.
HA-NDR, wt and mutants, and myc-hMOB1 were cotransfected into COS-1 cells and the cells were treated with OA prior to lysis. HA-NDR was immunoprecipitated and the coimmunoprecipitated myc-hMOB1 detected. […] Furthermore, the two important in vivo phosphorylation sites of NDR, serine-281 in the activation segment and the hydrophobic motif site threonine-444 in the C-terminal regulatory domain were tested, as well as the threonine 74 site in the N-terminal regulatory domain, for their role in NDR-MOB interaction.
HA-NDR N-terminal point mutants and myc-mob1 were co-transfected into COS1 cells which were treated with OA prior to lysis. HA-NDR mutants were immunoprecipitated and coimmunoprecipitated myc-hMOB1 detected.
In this Example, the effect of treatment of COS1 cells with BAPTA-AM on the NDR-MOB Interaction was determined. HA-NDR and myc-MOB1 was cotransfected into COS1 cells and the cells were treated with BAPTA-AM and OA or the solvents alone prior to lysis. HA-NDR was immunoprecipitated and co-immunoprecipitated myc-MOB1 detected. The kinase activity of the HA-NDR immunoprecipitates was measured in a peptide kinase assay.

[4] = test system: HA-NDR1; experiment: HA-NDR1 kinase assay on 12CA5 immunoprecipitates from transfected, treated COS-1 cells; assay type: cell-based, human; design: dose or concentration left out as unconfirmed
[5] = test system: HA-NDR2; experiment: HA-NDR2 protein kinase activity after cell treatment with okadaic acid or solvent; assay type: cell-based, human; settings: for activation of NDR2 mutant by OA: cell treatment with OA; for basal kinase activity of NDR2 mutant: solvent alone, compared with HA-NDR2-WT
Experimental: All other procedures (including bacterial expression, kinase assays, immunodetection and mass spectrometry) were carried out essentially as described in the Methodology section above.
To further examine this NDR2 mutants were created in which either Ser-282 or Thr-442 were replaced by an alanine. Additionally an in vitro phosphorylation site mutant T75A essentially as described above, and a kinase dead mutant K119A was created for Ndr2. The protein kinase activity of each of these mutants was measured following cell treatment with okadaic acid (OA) or solvent alone. HA-NDR2-WT was potently stimulated (˜10-fold) by OA.

[6] = test system: NDR2; experiment: Western blot of NDR2 variants with phosphorylation site specific antibodies; assay type: cell-based, human
Text: This was described above for the corresponding mutants of NDR1.

Compound	Spec. Activity (NDR1 kinase activity) [1]	phosphorylation of HA-NDR1 on Ser281 [2]	phosphorylation of HA-NDR1 on Thr444 [2]	effect of cell treatment on NDR-MOB interaction [3]	effect on okadaic acid-stimulated NDR1 activity [4]	stimulation of HA-NDR2-WT kinase activity ([5]; cell treatment with OA versus solvent alone) [fold]	activation of NDR2 mutant by OA [5]	basal kinase activity of NDR2 mutant [5]	phosphorylation of NDR2 on Ser282 [6]	phosphorylation of NDR2 on T442 upon OA treatment [6]	increase of Ser282 phosphorylation after OA treatment [6]
CC(=O)OCOC(=O)CN(CC(=O)OCOC(C)=O)c1ccccc1OCCOc1ccccc1N(CC(=O)OCOC(C)=O)CC(=O)OCOC(C)=O [BAPTA-AM, 1,2-bis (o-aminophenoxy) ethane-N,N,N′,N′-tetraacetic acid tetra (acetoxy-methyl)ester]	0.2676	declined almost to the baseline	declined almost to the baseline	reduction of the NDR-MOB interaction	dramatically reduced; also recorded: reduces OA induced NDR kinase activation						
C=C1[C@@H](O)[C@@H]2O[C@]3(CC[C@H](/C=C/[C@@H](C)[C@@H]4CC(C)=C[C@@]5(O[C@H](C[C@@](C)(O)C(=O)O)CC[C@H]5O)O4)O3)CC[C@H]2O[C@@H]1[C@@H](O)C[C@H](C)[C@H]1O[C@@]2(CCCCO2)CC[C@H]1C [okadaic acid, reference compound]	10.142	further enhanced	only became phosphorylated after okadaic acid treatment	dependent on stimulation of the cells with OA		~10					
C/C=C(/C)C(=O)O[C@H]1C(C)=C2[C@H]([C@@H]1OC(=O)CCCCCCC)[C@@](C)(OC(C)=O)C[C@H](OC(=O)CCC)[C@@]1(O)[C@H]2OC(=O)[C@@]1(C)O [thapsigargin]		rescued	rescued		rescued						
K119A: NDR2 kinase dead mutant K119A							didn't show any activation by OA	nearly undetectable levels	not phosphorylated on S282	becomes phosphorylated upon OA treatment	
NDR2 wt: human NDR2 wild type (SEQ ID NO:3), HA-tagged									becomes phosphorylated on Ser282	becomes phosphorylated upon OA treatment	increased after OA treatment
S282A: NDR2 mutant, Ser-282 replaced by alanine							still activated	markedly reduced basal activity		becomes phosphorylated upon OA treatment	
T75A: NDR2 in vitro phosphorylation site mutant T75A							still activated	markedly reduced basal activity	becomes phosphorylated on Ser282	becomes phosphorylated upon OA treatment	
T442A: NDR2 mutant, Thr-442 replaced by alanine							still activated	markedly reduced basal activity	becomes phosphorylated on Ser282		increased after OA treatment
